Measurements taken from patent US20070032477A1, “Pteridine derivatives useful for making pharmaceutical compositions” (priority 2003, published 2007).
Structures can show the parent of a compound that is named as a salt.

Experiments:
[1] = test system: mixed lymphocyte reaction (PBMC with allogeneic PBMC or Eppstein-Barr Virus-transformed human B cells as stimulator cells); assay: Mixed lymphocyte reaction (MLR) assay; type: cell-based; details: lowest concentration giving 50% suppression of the MLR; [3H]-thymidine
[2] = test system: production of TNF-α by PBMC in response to stimulation by LPS; assay: TNF-α assay; type: cell-based, human; details: LPS 1 μg/ml, 72 hours, sandwich ELISA
Method in brief: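 Cells were LPS-stimulated (1 μg/ml final) peripheral blood mononuclear cells at 10^6/ml, exposed 72 h at 37 °C to 0.1, 1 or 10 μM test compound.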

[3] = Plasma levels after oral administration in healthy mice; type: in vivo, C57BL/6 mice; details: 20 mg/kg once a day
Procedure: Each group of 6 mice received the indicated dose at time point 0 and were bled at 1, 3 and 5 hours after compound administration. Quantification was performed using a calibration curve of known compound concentrations spiked in control serum.
The plasma levels of the tested compound (example 176) was evaluated in C57BL/6 mice 8-10 weeks old Harlan, weighing 18.6-22.0 g after oral administration of 20, 10, 5 and 1 mg/kg, respectively (n=6 per dose). The tested compound (example 176) was dissolved in water to the appropriate concentration in order to deliver a constant gavage volume of 10 μl/g of body weight. Blood was collected by eye bleeding with heparinized capillaries at 1, 3, and 5 hours after dosing from each animal. The plasma fraction was immediately separated by centrifugation for 2 minutes at 12,000 g and stored at −80° C. until analysis. Each plasma sample was spiked with internal standard followed by the addition of 4 volumes of methanol. The samples were kept for 30 minutes on ice prior to centrifugation (10 minutes at 12,000 g) in order to remove precipitated proteins. The supernatant was analyzed for the presence of the tested compound (example 176), using LC/MS/MS. As standard for the bio-analysis, the tested compound (example 176) was diluted stepwise; each dilution was added to control plasma; additionally spiked with internal standard, giving rise to standard curves from 200 to 40,000 nM.

[4] = Mixed lymphocyte reaction (MLR) assay; type: cell-based, human; details: Homo sapiens, Lymphocyte; lowest concentration giving 50% suppression of the MLR; [3H]-thymidine
[5] = test system: production of IL-1 β by PBMC in response to stimulation by LPS; assay: IL-1 β assay; type: cell-based, human; details: LPS 1 μg/ml, 72 hours, sandwich ELISA
Procedure: Peripheral blood mononuclear cells (herein referred as PBMC), in response to stimulation by lipopolysaccharide (LPS), a gram-negative bacterial endotoxin, produce various […], in particular human IL-1 β. Inhibition of the activation of PBMC can therefore be measured by the level of suppression of the production of IL-1 β by PBMC in response to stimulation by LPS.
Such inhibition measurement was performed as follows: PBMC were isolated from heparinized peripheral blood by density gradient centrifugation over Lymphoprep (commercially available from Nycomed, Norway). LPS was then added to the PMBC suspension in complete medium (10^6 cells/ml) at a final concentration of 1 μg/ml. The pteridine derivative to be tested was added at different concentrations (0.1 μM, 1 μM and 10 μM) and the cells were incubated at 37° C. for 72 hours in 5% CO2. The supernatants were collected, then IL-1 β concentrations were measured with an anti-IL-1 β antibody in a sandwich ELISA. The calorimetric reading of the ELISA was measured by a Multiskan RC plate reader (commercially available from ThermoLabsystems, Finland) at 450 nm (reference wavelength: 690 nm). Data analysis was performed with Ascent software 2.6. (also from ThermoLabsystems, Finland): a standard curve (recombinant human IL-1 β) was drawn and the amount (pg/ml) of each sample on the standard curve was determined.
The % suppression of human IL-1 β by the pteridine derivatives (drugs) of this invention was calculated using the formula: [formula]

IC50 [4] [nM]	SMILES	IC50 [1] [nM]	IC50 [2] [nM]	serum concentrations versus in vitro IC50 for IL-1β production or T cell activation [3]	IC50 ([2]; Homo sapiens) [nM]	IC50 [5] [nM]
	CCCCCC(=O)N1CCN(c2nc(N)nc3ncc(-c4ccc(OC)c(OC)c4)nc23)CC1 [Example 10, 2-amino-4-[(N-hexanoyl)-piperazin-1-yl]-6-(3,4-dimethoxyphenyl)pteridine]	100	70	insufficient to inhibit IL-1β production or T cell activation		
4700	COc1ccc(-c2cnc3nc(NCc4cccs4)nc(N)c3n2)cc1OC [Example 80, 2-(2-thienylmethylamino)-4-amino-6-(3,4-dimethoxyphenyl)pteridine]					
3200	COc1ccc(-c2cnc3nc(NCc4ccccc4)nc(N)c3n2)cc1OC [Example 82, 2-benzylamino-4-amino-6-(3,4-dimethoxyphenyl)pteridine]					
8400	COc1ccc(-c2cnc3nc(N4CCCCC4)nc(N)c3n2)cc1OC [Example 87, 4-amino-2-piperidino-6-(3,4-dimethoxyphenyl)pteridine]					
300	COc1ccc(-c2cnc3nc(N)nc(N4CCC(C(=O)CN5CCNCC5)C4)c3n2)cc1OC (stereo not shown) [Example 131, 2-amino-4-(4-[2-(piperazin-1-yl)-acetyl]-pyrrolidino)-6-(3,4-dimethoxy-phenyl)pteridine]				1900	
	COc1ccc(-c2cnc3nc(N)nc(N4CCN(Cc5cccc(C)c5)CC4)c3n2)cc1OC [Example 136, 2-amino-4-(1-(3-methyl-benzyl)piperazinyl)-6-(3,4-dimethoxyphenyl)pteridine]	1400	800			4700
	COc1ccc(-c2cnc3nc(N)nc(N4CCN(c5ncccn5)CC4)c3n2)cc1OC [Example 147, 2-amino-4-((2-pyrimidinyl)-piperazin-1-yl)-6-(3,4-dimethoxyphenyl)pteridine]	200	100			4300
	COc1ccc(-c2cnc3nc(N)nc(N4CCN(CCCc5ccccc5)CC4)c3n2)cc1OC [Example 149]	500	300			4900
	COc1ccc(-c2cnc3nc(N)nc(N4CCN(c5ccc(Cl)c(Cl)c5)CC4)c3n2)cc1OC [Example 150, 2-amino-4-((3,4-dichlorophenyl)-piperazin-1-yl)-6-(3,4-dimethoxyphenyl)pteridine]	1000	300			3500
	COc1ccc(-c2cnc3nc(N)nc(N4CCN(CCn5cccc5)CC4)c3n2)cc1OC [Example 153]	200	100			2000
	COc1ccc(-c2cnc3nc(N)nc(N4CCN(CCOc5ccccc5)CC4)c3n2)cc1OC [Example 154]	100	30			2200
	COc1ccc(-c2cnc3nc(N)nc(N4CCN(Cc5ccncc5)CC4)c3n2)cc1OC [Example 157]	500	300			2300
	COc1ccc(-c2cnc3nc(N)nc(N4CCN(CCc5ccccc5)CC4)c3n2)cc1OC [Example 159, 2-amino-4-(N-phenethylpiperazin-1-yl)-6-(3,4-dimethoxyphenyl)pteridine]	110	20			5400
	COc1ccc(N2CCN(c3nc(N)nc4ncc(-c5ccc(OC)c(OC)c5)nc34)CC2)cc1 [Example 161, 2-amino-4-((4-methoxyphenyl)-piperazin-1-yl)-6-(3,4-dimethoxyphenyl)pteridine]	400	60			3200
	COc1ccc(-c2cnc3nc(N)nc(N4CCN(c5ccc(Cl)cc5)CC4)c3n2)cc1OC [Example 162, 2-amino-4-((4-chlorophenyl)-piperazin-1-yl)-6-(3,4-dimethoxyphenyl)pteridine]	800	400			3800
2300	COc1ccc(-c2cnc3nc(N)nc(N4CCN(CCC5OCCO5)CC4)c3n2)cc1OC [Example 164, 2-amino-6-(3,4-dimethoxyphenyl)-4-(4-(2-(1,3)-dioxolan-2-yl-ethyl)-piperazin-1-yl)pteridine]				200	
2900	CCOCCN1CCN(c2nc(N)nc3ncc(-c4ccc(OC)c(OC)c4)nc23)CC1 [Example 165, 2-amino-6-(3,4-dimethoxyphenyl)-4-(4-(2-ethoxyethyl)-piperazin-1-yl)pteridine]				300	
	CCC(CC)N1CCN(c2nc(N)nc3ncc(-c4ccc(OC)c(OC)c4)nc23)CC1 [Example 166, 2-amino-6-(3,4-dimethoxyphenyl)-4-(pent-3-yl-piperazin-1-yl)pteridine]	5300	800			4400
	CCCCCN1CCN(c2nc(N)nc3ncc(-c4ccc(OC)c(OC)c4)nc23)CC1 [Example 167, 2-amino-6-(3,4-dimethoxyphenyl)-4-(1-pentyl-piperazin-1-yl)pteridine]	3800	300			3700
	COc1ccc(-c2cnc3nc(N)nc(N4CCN(c5ccc(F)cc5)CC4)c3n2)cc1OC [Example 172, 2-amino-6-(3,4-dimethoxyphenyl)-4-((4-fluorophenyl)-piperazin-1-yl)pteridine]	100	50			5100
	COc1ccc(-c2cnc3nc(N)nc(N4CCN(c5ccc(C)c(C)c5)CC4)c3n2)cc1OC [Example 174, 2-amino-6-(3,4-dimethoxyphenyl)-4-((3,4-dimethylphenyl)-piperazin-1-yl)pteridine]	500	110			5000
	COc1ccc(-c2cnc3nc(N)nc(N4CCN(c5nccs5)CC4)c3n2)cc1OC [Example 178]	1300	150			4000
8200	CCCN(CCC)CCN1CCN(c2nc(N)nc3ncc(-c4ccc(OC)c(OC)c4)nc23)CC1 [Example 183, 2-amino-6-(3,4-dimethoxyphenyl)-4-(4-(2-dipropylaminoethyl)-piperazin-1-yl)pteridine trihydrochloride salt]				1200	
7700	COc1ccc(-c2cnc3nc(N)nc(N4CCN(CCN5CCCCC5)CC4)c3n2)cc1OC [Example 184, 2-amino-6-(3,4-dimethoxyphenyl)-4-(4-(2-piperidin-1-yl-ethyl)-piperazin-1-yl)pteridine trihydrochloride salt]				700	
	COc1ccc(-c2cnc3nc(N)nc(N4CCN(CC(=O)Nc5nccs5)CC4)c3n2)cc1OC [Example 187, 2-amino-4-[2-(piperazin-1-yl)-acetic acid N-(2-thiazolyl)-amide]-6-(3,4-dimethoxyphenyl)pteridine]	100	60			2400
